Measured values published in article PMC4769088, “Antifungal Activity and Action Mechanism of Histatin 5-Halocidin Hybrid Peptides against Candida ssp” (PLoS ONE, 2016).
Converted amounts (≈) assume the structure as drawn. Where a SMILES comes first, the peptide text is derived from it. Bridges are numbered along the chain shown (N, C = ends). Roman numbers before positions name the chains, in order.

Key:
[1] = test system: pustulan (β-1,6-glucan polymer), C. albicans cell wall component; assay: Binding/radial diffusion assay with pustulan; format: cell-based; settings: peptide final 180 μg/ml, pre-incubated 2 h at 37°C, radial diffusion assay
Description: The candidacidal activities of the peptides were tested by using standard microdilution plate assays, radial diffusion assays and broth dilution assay slightly modified from the procedure recommended by the National Committee for Clinical Laboratory Standards. For the candidacidal assays, C. albicans cells were grown in YPD medium and washed twice with 10 mM sodium phosphate buffer (NaPB; Na2HPO4, NaH2PO4, pH 7.4). The cells (1 x 10^6) were then mixed with different concentrations of peptides and incubated at 30°C with constant shaking for 60 min. For energy depletion experiments, cells were pre-incubated with 10 mM NaPB containing 5 mM NaN3 at 30°C for 60 min before the addition of peptides. The cell suspensions were diluted in 10 mM NaPB and aliquots of 500 cells were spread onto YPD agar plates then incubated for 24 h at 30°C to visualize the surviving colonies. Cell survival was expressed as a percentage of that for the control, and the loss of viability was calculated as [1 x (number of colonies from peptide-treated cells/number of colonies from control cells)] x 100. […] The clear-zone diameters were measured to the nearest 0.1 mm and graphed against the peptide concentration. […] The numbers of yeasts were counted using a hemocytometer. […] The antifungal activities were evaluated after 24 h of incubation at 30°C by the observation of visible turbidity the wells. […]

L929 cells = assay: Cytotoxic activity (WST-1 cell viability assay); format: cell-based, mouse; settings: 24 h treatment, WST-1, OD 460 nm
Description: The cytotoxicity of hybrid peptides was evaluated in mouse […] cells (L929, Korean Collection for Type Cultures, KCTC). L929 cells in RPMI1640-10% FBS (100 μL, 3 × 10^5 cells/ml) were seeded in 96-well plates and cultured at 37°C for 24 h in a 5% CO2 incubator. The L929 cells were treated with peptides at predetermined concentrations for 24 h, and 10 μl of EZ-Cytox Cell Viability Assay solution WST-1® (Daeil Lab Service, Korea) were added to each well. Three hours later, the cytotoxicity of peptides against L929 cells was assessed by measuring the optical density at 460 nm using a Perkin Elmer 2030 Reader (Victor X3).

SMILES | pustulan concentration at which activity began to decrease [1] [mg/mL] | CC50 (L929 cells) [mg/L]
CC(C)C[C@H](NC(=O)CNC(=O)[C@H](Cc1c[nH]cn1)NC(=O)[C@H](Cc1c[nH]cn1)NC(=O)[C@H](CC(C)C)NC(=O)[C@H](CC(C)C)NC(=O)[C@H](C)NC(=O)[C@H](CC(N)=O)NC(=O)[C@H](CC(C)C)NC(=O)[C@@H](N)Cc1c[nH]c2ccccc12)C(=O)N[C@@H](CC(N)=O)C(=O)N[C@@H](CSSC[C@H](NC(=O)[C@H](CC(N)=O)NC(=O)[C@H](CC(C)C)NC(=O)CNC(=O)[C@H](Cc1c[nH]cn1)NC(=O)[C@H](Cc1c[nH]cn1)NC(=O)[C@H](CC(C)C)NC(=O)[C@H](CC(C)C)NC(=O)[C@H](C)NC(=O)[C@H](CC(N)=O)NC(=O)[C@H](CC(C)C)NC(=O)[C@@H](N)Cc1c[nH]c2ccccc12)C(=O)N[C@@H](C)C(=O)N[C@@H](CCCCN)C(=O)NCC(=O)N[C@H](C(=O)N[C@@H](CC(C)C)C(=O)N[C@@H](C)C(N)=O)C(C)C)C(=O)N[C@@H](C)C(=O)N[C@@H](CCCCN)C(=O)NCC(=O)N[C@H](C(=O)N[C@@H](CC(C)C)C(=O)N[C@@H](C)C(N)=O)C(C)C [di-18Hc, reference compound] (I: H-WLNALLHHGLNCAKGVLA-NH2 / II: H-WLNALLHHGLNCAKGVLA-NH2; disulfide I:12-II:12 (inferred); N-terminus assumed) | 20 | 72.385 (≈ 18.8 µM)
CC(C)C[C@H](NC(=O)[C@@H](N)Cc1c[nH]c2ccccc12)C(=O)N[C@@H](CC(N)=O)C(=O)N[C@@H](C)C(=O)N[C@@H](CCCCN)C(=O)N[C@@H](CCCNC(=N)N)C(=O)N[C@@H](Cc1c[nH]cn1)C(=O)N[C@@H](Cc1c[nH]cn1)C(=O)NCC(=O)N[C@@H](Cc1ccc(O)cc1)C(=O)N[C@@H](CCCCN)C(=O)N[C@@H](CSSC[C@H](NC(=O)[C@H](CCCCN)NC(=O)[C@H](Cc1ccc(O)cc1)NC(=O)CNC(=O)[C@H](Cc1c[nH]cn1)NC(=O)[C@H](Cc1c[nH]cn1)NC(=O)[C@H](CCCNC(=N)N)NC(=O)[C@H](CCCCN)NC(=O)[C@H](C)NC(=O)[C@H](CC(N)=O)NC(=O)[C@H](CC(C)C)NC(=O)[C@@H](N)Cc1c[nH]c2ccccc12)C(=O)N[C@@H](CCCCN)C(=O)N[C@@H](Cc1ccccc1)C(=O)N[C@@H](Cc1c[nH]cn1)C(N)=O)C(=O)N[C@@H](CCCCN)C(=O)N[C@@H](Cc1ccccc1)C(=O)N[C@@H](Cc1c[nH]cn1)C(N)=O [di-WP2] (I: H-WLNAKRHHGYKCKFH-NH2 / II: H-WLNAKRHHGYKCKFH-NH2; disulfide I:12-II:12 (inferred); N-terminus assumed) | 20 | –
